Key:
spleen (SP) = test: Whole organ transcriptome (GeneChip microarray) of spleen 6 h after adjuvant administration: sDEGs, hierarchical clustering; assay type: in vivo, C57BL/6 mice; details: hierarchical clustering; further: key: G1 (interferon signaling); G2 (metabolism of lipids and lipoproteins); G3 (response to stress); G4 (response to wounding); G5 (phosphate-containing compound metabolic process); G6 (phagosome)
liver (LV) = test: Whole organ transcriptome (GeneChip microarray) of liver 6 h after adjuvant administration: sDEGs, hierarchical clustering; assay type: in vivo, C57BL/6 mice; details: hierarchical clustering, liver; further: key: G1 (interferon signaling); G2 (metabolism of lipids and lipoproteins); G3 (response to stress); G4 (response to wounding); G5 (phosphate-containing compound metabolic process); G6 (phagosome)
[1] = test system: adjuvant-associated biological themes in LV, SP, LN; details: LV, ID
How it was run: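 Enrichment score S sums −log(p) over consensus themes whose names contain a pre-selected adjuvant-associated term such as "stress" or "cytokine". Consensus requires a theme in all three mice of a group, p<0.05. Themes come from TargetMine analysis of genes with eij/ei(c)>2.0, Fisher's exact test, Holm-Bonferroni-corrected.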

Nc1nc2c(ncn2[C@@H]2O[C@@H]3COP(=O)(O)O[C@H]4[C@@H](O)[C@H](n5cnc6c(=O)[nH]c(N)nc65)O[C@@H]4COP(=O)(O)O[C@H]3[C@H]2O)c(=O)[nH]1 [cdiGMP, Cyclic diguanylate monophosphate]
adjuvant group (cluster) in SP (spleen (SP)): G1 | adjuvant group (cluster) in LV (liver (LV)): G1 | GO annotation: Cytokine-cytokine receptor interaction (Term: cytokine) [1]: 13.8 | GO annotation: Cytokine-cytokine receptor interaction|Endocytosis (Term: cytokine) [1]: 33.9 | GO annotation: I-kappaB kinase/NF-kappaB signaling (Term: NF-kappa B signaling pathway) [1]: 13.8 | GO annotation: NF-kappa B signaling pathway (Term: NF-kappa B signaling pathway) [1]: 15.7 | GO annotation: TNF signaling pathway (Term: TNF signaling pathway) [1]: 31.3 | GO annotation: activation of immune response (Term: immune response) [1]: 17.9 | GO annotation: activation of innate immune response (Term: innate immune response) [1]: 21.2 | GO annotation: acute inflammatory response (Term: inflammatory response) [1]: 0 | GO annotation: adaptive immune response (Term: adaptive immune response) [1]: 10 | GO annotation: adaptive immune response based on somatic recombination of immune receptors built from immunoglobulin superfamily domains (Term: adaptive immune response) [1]: 10.6 | GO annotation: apoptotic process (Term: apoptosis) [1]: 12.1 | GO annotation: apoptotic signaling pathway (Term: apoptosis) [1]: 0 | GO annotation: cell chemotaxis (Term: chemotaxis) [1]: 0 | GO annotation: cell death (Term: cell death) [1]: 17.7 | GO annotation: cell migration (Term: migration) [1]: 0 | GO annotation: cellular response to cytokine stimulus (Term: cytokine) [1]: 38.8 | GO annotation: cellular response to interferon-alpha (Term: IFN alpha) [1]: 7.42 | GO annotation: cellular response to stress (Term: stress) [1]: 0 | GO annotation: chemokine production (Term: chemokine) [1]: 8.52 | GO annotation: chemokine-mediated signaling pathway (Term: chemokine) [1]: 5.9 | GO annotation: chemotaxis (Term: chemotaxis) [1]: 0 | GO annotation: cytokine biosynthetic process (Term: cytokine) [1]: 7.93 | GO annotation: cytokine metabolic process (Term: cytokine) [1]: 7.39 | GO annotation: cytokine production (Term: cytokine) [1]: 31.3 | GO annotation: cytokine secretion (Term: cytokine) [1]: 0 | GO annotation: cytokine-mediated signaling pathway (Term: cytokine) [1]: 20 | GO annotation: death (Term: cell death) [1]: 12.1 | GO annotation: defense response (Term: defense response) [1]: 80.9 | GO annotation: defense response to Gram-positive bacterium (Term: defense response) [1]: 7.18 | GO annotation: defense response to bacterium (Term: defense response) [1]: 10.5 | GO annotation: defense response to other organism (Term: defense response) [1]: 44.1 | GO annotation: defense response to protozoan (Term: defense response) [1]: 5.31 | GO annotation: defense response to virus (Term: defense response) [1]: 24.6 | GO annotation: granulocyte chemotaxis (Term: chemotaxis) [1]: 0 | GO annotation: granulocyte migration (Term: migration) [1]: 0 | GO annotation: immune response (Term: immune response) [1]: 52.3 | GO annotation: immune response-activating signal transduction (Term: immune response) [1]: 19.3 | GO annotation: immune response-regulating signaling pathway (Term: immune response) [1]: 23.5 | GO annotation: inflammatory response (Term: inflammatory response) [1]: 26.1 | GO annotation: innate immune response (Term: innate immune response) [1]: 40.7 | GO annotation: innate immune response-activating signal transduction (Term: innate immune response) [1]: 20.3 | GO annotation: interferon-alpha production (Term: IFN alpha) [1]: 7.69 | GO annotation: intrinsic apoptotic signaling pathway (Term: apoptosis) [1]: 0 | GO annotation: leukocyte chemotaxis (Term: chemotaxis) [1]: 0 | GO annotation: leukocyte migration (Term: migration) [1]: 0 | GO annotation: leukocyte migration involved in inflammatory response (Term: inflammatory response) [1]: 0 | GO annotation: lymphocyte chemotaxis (Term: chemotaxis) [1]: 0 | GO annotation: lymphocyte migration (Term: migration) [1]: 0 | GO annotation: myeloid leukocyte migration (Term: migration) [1]: 0 | GO annotation: negative regulation of apoptotic process (Term: apoptosis) [1]: 0 | GO annotation: negative regulation of cell death (Term: cell death) [1]: 0 | GO annotation: negative regulation of cytokine production (Term: cytokine) [1]: 6.2 | GO annotation: negative regulation of defense response (Term: defense response) [1]: 8.05 | GO annotation: negative regulation of immune response (Term: immune response) [1]: 6.54 | GO annotation: negative regulation of innate immune response (Term: innate immune response) [1]: 10.4 | GO annotation: negative regulation of programmed cell death (Term: cell death) [1]: 0 | GO annotation: neutrophil chemotaxis (Term: chemotaxis) [1]: 0 | GO annotation: neutrophil migration (Term: migration) [1]: 0 | GO annotation: positive regulation of I-kappaB kinase/NF-kappaB signaling (Term: NF-kappa B signaling pathway) [1]: 7.15 | GO annotation: positive regulation of adaptive immune response (Term: adaptive immune response) [1]: 0 | GO annotation: positive regulation of apoptotic process (Term: apoptosis) [1]: 0 | GO annotation: positive regulation of cell death (Term: cell death) [1]: 0 | GO annotation: positive regulation of cell migration (Term: migration) [1]: 0 | GO annotation: positive regulation of chemokine production (Term: chemokine) [1]: 8.31 | GO annotation: positive regulation of chemotaxis (Term: chemotaxis) [1]: 0 | GO annotation: positive regulation of cytokine biosynthetic process (Term: cytokine) [1]: 3.62 | GO annotation: positive regulation of cytokine production (Term: cytokine) [1]: 23.6 | GO annotation: positive regulation of defense response (Term: defense response) [1]: 35.8 | GO annotation: positive regulation of immune response (Term: immune response) [1]: 24.4 | GO annotation: positive regulation of inflammatory response (Term: inflammatory response) [1]: 0 | GO annotation: positive regulation of innate immune response (Term: innate immune response) [1]: 22.3 | GO annotation: positive regulation of interferon-alpha production (Term: IFN alpha) [1]: 8.97 | GO annotation: positive regulation of leukocyte chemotaxis (Term: chemotaxis) [1]: 0 | GO annotation: positive regulation of leukocyte migration (Term: migration) [1]: 3.33 | GO annotation: positive regulation of programmed cell death (Term: cell death) [1]: 0 | GO annotation: positive regulation of response to wounding (Term: wounding) [1]: 0 | GO annotation: positive regulation of tumor necrosis factor superfamily cytokine (Term: cytokine) [1]: 0 | GO annotation: production of molecular mediator of immune response (Term: immune response) [1]: 0 | GO annotation: programmed cell death (Term: cell death) [1]: 14 | GO annotation: regulation of I-kappaB kinase/NF-kappaB signaling (Term: NF-kappa B signaling pathway) [1]: 8.16 | GO annotation: regulation of adaptive immune response (Term: adaptive immune response) [1]: 8.01 | GO annotation: regulation of adaptive immune response based on somatic recombination of immune receptors built from immunoglobulin superfamily domains (Term: adaptive immune response) [1]: 3.64 | GO annotation: regulation of apoptotic process (Term: apoptosis) [1]: 4.93 | GO annotation: regulation of apoptotic signaling pathway (Term: apoptosis) [1]: 0 | GO annotation: regulation of cell death (Term: cell death) [1]: 4.48 | GO annotation: regulation of cell migration (Term: migration) [1]: 0 | GO annotation: regulation of chemokine production (Term: chemokine) [1]: 9.64 | GO annotation: regulation of chemotaxis (Term: chemotaxis) [1]: 0 | GO annotation: regulation of cytokine biosynthetic process (Term: cytokine) [1]: 3.81 | GO annotation: regulation of cytokine production (Term: cytokine) [1]: 31.6 | GO annotation: regulation of defense response (Term: defense response) [1]: 56.5 | GO annotation: regulation of defense response to virus (Term: defense response) [1]: 0 | GO annotation: regulation of defense response to virus by host (Term: defense response) [1]: 0 | GO annotation: regulation of immune response (Term: immune response) [1]: 29.4 | GO annotation: regulation of inflammatory response (Term: inflammatory response) [1]: 12.3 | GO annotation: regulation of innate immune response (Term: innate immune response) [1]: 33.4 | GO annotation: regulation of interferon-alpha production (Term: IFN alpha) [1]: 8.3 | GO annotation: regulation of intrinsic apoptotic signaling pathway (Term: apoptosis) [1]: 0 | GO annotation: regulation of leukocyte chemotaxis (Term: chemotaxis) [1]: 0 | GO annotation: regulation of leukocyte migration (Term: migration) [1]: 0 | GO annotation: regulation of programmed cell death (Term: cell death) [1]: 5.36 | GO annotation: regulation of response to stress (Term: stress) [1]: 42.9 | GO annotation: regulation of response to wounding (Term: wounding) [1]: 10.7 | GO annotation: regulation of tumor necrosis factor superfamily cytokine production (Term: cytokine) [1]: 4.03 | GO annotation: response to cytokine (Term: cytokine) [1]: 56.3 | GO annotation: response to interferon-alpha (Term: IFN alpha) [1]: 12.6 | GO annotation: response to stress (Term: stress) [1]: 56.2 | GO annotation: response to wounding (Term: wounding) [1]: 11.4 | GO annotation: taxis (Term: chemotaxis) [1]: 0 | GO annotation: tumor necrosis factor superfamily cytokine production (Term: cytokine) [1]: 3.79 | IFN beta: cellular response to interferon-beta [1]: 23.1 | IFN beta: interferon-beta production [1]: 8.61 | IFN beta: positive regulation of interferon-beta production [1]: 13.2 | IFN beta: regulation of interferon-beta production [1]: 9.22 | IFN beta: response to interferon-beta [1]: 26.5 | IFN gamma: cellular response to interferon-gamma [1]: 10.1 | IFN gamma: interferon-gamma production [1]: 5.35 | IFN gamma: regulation of interferon-gamma production [1]: 0 | IFN gamma: response to interferon-gamma [1]: 10.8 | interleukin-6: interleukin-6 production [1]: 7.8 | interleukin-6: positive regulation of interleukin-6 production [1]: 0 | interleukin-6: regulation of interleukin-6 production [1]: 8.27 | interleukin-12: interleukin-12 production [1]: 6.51 | interleukin-12: positive regulation of interleukin-12 production [1]: 0 | interleukin-12: regulation of interleukin-12 production [1]: 6.99

Reference: patent US20230021483A1, “[…] […] METHOD AND CLASSIFICATION OF PHARMACEUTICAL COMPONENTS BY USING TRANSCRIPTOMES” (National Institutes of Biomedical Innovation, Health and …, priority 2016, published 2023)
